Publication PMC10141076, “Steroids and Fatty Acid Esters from Cyperus sexangularis Leaf and Their Antioxidant, Anti-Inflammatory and Anti-Elastase Properties” (Molecules, 2023)
Where “and” joins values, the source holds several entries; their conditions need not be identical. Equal values may be shown once. Marks after values point to notes of the source that are not given here.

Experiments:
[1] = molecular target: T1, porcine pancreatic elastase (PPE) (Sus scrofa, UniProt P00772); experiment: Anti-elastase assay (release of p-nitroaniline from N-succinyl-ala-ala-ala-p-nitroanilide); assay type: biochemical; settings: n = 3; text says elastase in HaCaT cells, method uses PPE; read-out: Anti-Elastase Activity (IC50 ± SD) (converted)
T1 construct: purchased Sigma
T1 sequence (P00772 27-266): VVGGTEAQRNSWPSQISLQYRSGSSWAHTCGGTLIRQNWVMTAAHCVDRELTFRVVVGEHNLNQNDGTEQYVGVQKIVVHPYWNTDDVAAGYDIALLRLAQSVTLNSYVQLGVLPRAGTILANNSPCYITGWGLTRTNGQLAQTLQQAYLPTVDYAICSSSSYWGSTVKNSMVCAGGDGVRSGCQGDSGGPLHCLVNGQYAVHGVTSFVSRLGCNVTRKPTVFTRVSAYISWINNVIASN
Experimental: All reagents, solvents, silica gel for TLC and silica gel for column chromatography were purchased from Sigma-Aldrich (Pty) Ltd. (Johannesburg, South Africa) and Merck (Pty) Ltd. (Johannesburg, South Africa) through a licenced local supplier, Shalom Laboratories and Supplies, South Africa. Antioxidant absorbance were measured on a 680-Bio-Rad Microplate Reader (Serial Number 14966, Irvine, CA, USA), while the anti-elastase activity was monitored on a Perkin Elmer VICTOR Nivo microplate reader ([…]). Isolated compounds were analyzed with a 600 MHz Bruker Biospin GmbH spectrometer (Bruker, Rheinstetten, Germany) and a 400 MHz VARIAN NMR spectrometer (Agilent Technologies Inc., Santa Clara, CA, USA). Chemical shift (δ) was recorded in part per million (ppm). The spectrum range was set at 0–14 ppm for 1H NMR, while that of ^13C NMR was set at 0–220 ppm. Tetramethyl silane was used as the internal standard and compounds were read in deuterated chloroform and benzene, as well as benzene-d6 in trifluorotoluene (TFT). High-resolution mass spectrometry (HRMS) was performed with a Waters API Q-TOF Ultima spectrometer (Waters Corporation, Manchester, UK) situated in Stellenbosch University, Stellenbosch, South Africa. […]
The ability of each isolated compound to inhibit porcine pancreatic elastase (PPE) (Sigma) was determined by measuring the release of p-nitroaniline from N-succinyl-ala-ala-ala-p-nitroanilide spectrophotometrically at 405nm according to the method of Bieth et al. and modified according to the method of Fibrich et al.. The reaction mixture contained 100mM Tris buffer (pH 8.0), 0.5M HCl; the test sample was serially diluted in DMSO to yield seven concentrations ([…]) to which PPE ([…]) was added and incubated for 15 min, followed by the addition of N-succinyl-ala-ala-ala-p-nitroanilide (4mM). The change in the absorbance of the reaction mixture was measured for 15 min, from which the rate was obtained. One unit of elastastolytic activity is defined as the release of 1 µM of p-nitroaniline/min. Ursolic acid was included as the positive drug control, as well as a vehicle control containing 2% DMSO and two negative controls (one in which no enzyme was added and the other in which no substrate was added). An IC50, or concentration at which 50% of the enzyme activity is inhibited was calculated using GraphPad Prism 4 (GraphPad Software, San Diego, CA, USA).

[2] = DPPH spectrophotometric assay (radical scavenging); settings: mean ± SEM, n = 3; 30 min, 37 °C, 515 nm
Experimental: This was performed by following a previously reported conventional method, with some modifications. Here, 0.5 mL of 0.1Mm DPPH radical in methanol was added to 0.5 mL of serially diluted CS-isolated compounds and L-ascorbic acid at 100.00, 50.00, 25.00, 12.50 and 6.25 µg/mL concentration range in triplicate. The reaction mixture was incubated in the dark at 37 °C for 30 min. The absorbance was measured at 515 nm on a microplate reader. The percentage inhibition of the radical was calculated thus: % DPPH inhibition=(ABScontrol−ABSsample/ABScontrol)×100 where ABSsample = Absorbance of test sample, while ABScontrol = Absorbance of negative control (2% DMSO).

[3] = Nitric oxide (NO) inhibition assay (sodium nitroprusside/Griess); settings: mean ± SEM, n = 3; 540 nm
Experimental: The inhibitory effect of the isolated compounds against the NO radical was investigated using the method described by Jimoh et al.. The compounds were prepared in varying concentrations from 100.00–6.25 µg/mL. They were added to 0.2 Mm (2 mL) of sodium nitroprusside in triplicates.

[4] = Ferric reducing antioxidant power (FRAP) assay; settings: ascorbic acid equivalent; mean ± SEM, n = 3; 700 nm
Experimental: The reducing antioxidant capacity of each isolated compound was evaluated according to the method of Kumar and Pandey, with some modifications. The compounds were dissolved in 2% DMSO and added to the mixture containing 0.25 mL of phosphate buffer (0.2 M; pH 6.6) and 0.25 mL of potassium ferricyanide [K3Fe(CN)6] (1% w/v). Standard compounds used were L (+)-Ascorbic acid. The resulting mixture was incubated at 50 °C for 20 min, followed by the addition of 0.25 mL of CCl3COOH (10% w/v) and then centrifuged at 3000 rpm for 10 min. The upper layer of the solution was mixed with 1 mL of 2% DMSO and the same amount and 0.5 mL of FeCl3 (0.1%, w/v). The experiment was conducted in triplicate, and absorbance was measured at 700 nm on a microplate reader against a blank sample of only phosphate buffer. Thus, the ferric reducing power of the isolated compounds at 100.00, 50.00, 25.00, 12.50 and 6.25 µg/mL concentration in methanol were determined as ascorbic acid equivalent (AAE) from the calibration curve of the positive control (L-ascorbic acid).

egg albumin = experiment: In vitro anti-inflammatory test: egg albumin denaturation (EAD) assay; assay type: biochemical, chicken
Experimental: The test was carried out using the egg albumin denaturation assay method reported by Chatterjee et al.. […] The mixture was incubated at 37 °C for 15 min away from direct light and thereafter boiled at 70 °C for 5 min in a thermostatic water bath. The resulting mixture was cooled, and the absorbance was measured at 655 nm on a microplate reader.

| SMILES | IC50 [1] [µM] | DPPH (IC50 ± SEM) [2] | NO (IC50 ± SEM) [3] | FRAP [4] | further results |
| --- | --- | --- | --- | --- | --- |
| CCCCCCCCCCCCCCCCCCC(=O)OCC [ethyl nonadecanoate] | > 153 |  |  |  |  |
| CCCCCCCCCCCCCCCCCC(=O)OCC [Compound 6, ethyl stearate] | ≥ 160 | 49.86 ± 2.29 ^d µg/mL | 95.99 ± 4.93 ^d µg/mL | 190.92 ± 11.68 ^a µgAAE/mg | inhibition of egg albumin denaturation, rank in words (egg albumin; at concentrations above 6.25 µg/mL): least activity among the fatty acid compounds |
| CC[C@H](C=C[C@@H](C)[C@H]1CC[C@H]2[C@@H]3CC=C4CC(O)CC[C@]4(C)[C@H]3CC[C@]12C)C(C)C (stereo partly shown) [Compound 1, stigmasta-5,22-dien-3-ol] | > 121 | 38.18 ± 2.30 ^bc µg/mL | 68.56 ± 4.03 ^bc µg/mL | 303.58 ± 10.33 µgAAE/mg and 303.58 ± 10.33 ^c µgAAE/mg | inhibition of egg albumin denaturation (egg albumin; at 6.25 µg/mL (lowest concentration)): 51.03 ± 10.36%; inhibition of egg albumin denaturation (egg albumin; at 6.25 µg/mL (lowest concentration), listed as stigmasterol): 50%; inhibition of egg albumin denaturation (egg albumin; at 25 µg/mL (median concentration)): up to 70% |
| C[C@H]1[C@H](C)CC[C@]2(C(=O)O)CC[C@]3(C)C(=CC[C@@H]4[C@@]5(C)CC[C@H](O)C(C)(C)[C@@H]5CC[C@]43C)[C@H]12 [Ursolic acid, ursolic acid, reference compound] | 54.3 |  |  |  |  |
| CC[C@H](CC[C@@H](C)[C@H]1CC[C@H]2[C@@H]3CC=C4C[C@@H](O)CC[C@]4(C)[C@H]3CC[C@]12C)C(C)C [Compound 3, β-sitosterol] | > 121 |  |  |  |  |
| O=C1O[C@H]([C@@H](O)CO)C(O)=C1O [ASC, L-ascorbic acid, reference compound] |  | 8.92 ± 1.26 ^a µg/mL | 21.89 ± 1.32 ^a µg/mL |  |  |
| C=CC(C)C1CCC2C1CCC1C3CCCCC3CCC12 (stereo not shown) [Compound 2, 17-(1-methyl-allyl)-hexadecahydro-cyclopenta[a] phenanthrene] | > 349 | 57.63 ± 1.62 ^e µg/mL | 105.73 ± 7.48 ^d µg/mL | 196.21 ± 13.79 ^a µgAAE/mg | inhibition of egg albumin denaturation, rank in words (egg albumin; across all concentrations (100–6.25 µg/mL), p < 0.05): least active among all the compounds tested |
| CCCCCCCCCCCC(=O)O [Compound 4, dodecanoic acid] | > 250 | 35.99 ± 2.13 ^b µg/mL | 65.04 ± 3.20 ^b µg/mL | 245.94 ± 22.81 ^b µgAAE/mg |  |
| CCCCCCCCCCCCCCCCCC(=O)OCC [ethyl stearate] | > 160 |  |  |  |  |
| CCCCCCCCCCCCCCCCCCC(=O)OCC [Compound 5, ethyl nonadecanoate] | ≥ 153 | 43.82 ± 1.44 ^c µg/mL | 69.74 ± 3.06 ^bc µg/mL | 243.40 ± 19.72 ^b µgAAE/mg |  |
